Drawing on patent US9790229B2, “Bruton's tyrosine kinase inhibitors” (priority 2009, dated 2017), this text covers IC50 for 44 compounds.

In general, IC50 refers to the concentration at which inhibition is half-maximal.

Chain of BTK (Q06187 whole entry): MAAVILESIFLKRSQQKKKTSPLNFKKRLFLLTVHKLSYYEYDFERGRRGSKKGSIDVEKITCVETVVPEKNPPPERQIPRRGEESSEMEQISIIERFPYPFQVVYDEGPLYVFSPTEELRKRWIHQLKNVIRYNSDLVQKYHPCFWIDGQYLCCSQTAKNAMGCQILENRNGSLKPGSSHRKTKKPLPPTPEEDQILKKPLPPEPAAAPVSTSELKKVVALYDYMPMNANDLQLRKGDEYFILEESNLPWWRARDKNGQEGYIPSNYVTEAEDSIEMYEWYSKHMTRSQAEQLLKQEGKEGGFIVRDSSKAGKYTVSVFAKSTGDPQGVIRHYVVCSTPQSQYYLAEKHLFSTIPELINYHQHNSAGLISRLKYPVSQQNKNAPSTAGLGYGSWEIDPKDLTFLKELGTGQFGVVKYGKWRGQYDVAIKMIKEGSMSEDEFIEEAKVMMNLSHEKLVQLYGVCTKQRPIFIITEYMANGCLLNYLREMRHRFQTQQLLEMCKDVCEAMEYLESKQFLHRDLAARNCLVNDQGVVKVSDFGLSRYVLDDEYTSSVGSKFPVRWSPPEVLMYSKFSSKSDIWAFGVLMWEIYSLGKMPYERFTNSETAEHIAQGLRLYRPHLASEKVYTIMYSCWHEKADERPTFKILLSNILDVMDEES

One test addresses BTK (Homo sapiens (Human), UniProt Q06187). In words: In vitro BTK kinase assay: BTK-POLYGAT-LS ASSAY.
Conditions: not given
On to `O=C(Nc1cccc(C2CCCN(c3ncnc4[nH]ccc34)C2)c1)Nc1cccnc1F` (centres unmarked) [compound 197], for which the IC50 lay in the range of 1 to 10 µM.
`O=C1Cc2c(ncnc2N2CCCC(c3cccc(NC(=O)Nc4ccccc4)c3)C2)N1` (centres unmarked) [Cmpd 96, 1-(3-(1-(6-oxo-6,7-dihydro-5H-pyrrolo[2,3-d]pyrimidin-4-yl)piperidin-3-yl)phenyl)-3-phenylurea] showed an IC50 of 1 to 10 µM.
Compound `O=C(Nc1cccc(C2CN(c3ncnc4[nH]ccc34)CCC2CO)c1)Nc1ccccc1N1CCCC1` (centres unmarked) [compound 163] returned an IC50 of 0.1 to 0.999 µM.
For `Nc1ncnc(N2CC[C@H](O)[C@@H](N3CCCC(Nc4cc(Cl)cc(Cl)c4)C3=O)C2)c1F` (stereo partly drawn) [compound 325, trans 1′-(6-Amino-5-fluoropyrimidin-4-yl)-3-(3,5-dichlorophenylamino)-4′-hydroxy-1,3′-bipiperidin-2-one], the IC50 lay in the range of 0.1 to 0.999 µM.
Turning to `N#Cc1c(N)ncnc1N1CCCC(c2ccc(OC(F)(F)F)c(NC(=O)c3ccccc3Cl)c2)C1` (centres unmarked) [compound 145], the IC50 lay within 0.1 to 0.999 µM.
Compound `CC(C)c1cc(=O)nc(Nc2cccc(C3CCCN(c4ncnc5[nH]ccc45)C3)c2)[nH]1` (centres unmarked) [compound 121, 2-(3-(1-(7H-pyrrolo[2,3-d]pyrimidin-4-yl)piperidin-3-yl)phenylamino)-6-isopropylpyrimidin-4(1H)-one] yielded a half-inhibitory concentration (IC50) of 1 to 10 µM.
Turning to `COc1cccc(NC(=O)Nc2cccc(C3CCCN(c4ncnc5[nH]ccc45)C3)c2)c1` (centres unmarked) [compound 187], the IC50 was in the range of 1 to 10 µM.
For the compound `CC(C)CNC(=O)Nc1cccc(C2CCCN(c3ncnc4[nH]ccc34)C2)c1` (centres unmarked) [compound 212], the half-maximal inhibitory concentration (IC50) is 1 to 10 µM.
Take `CS(=O)(=O)c1ccccc1NC(=O)Nc1cccc(C2CCCN(c3ncnc4[nH]ccc34)C2)c1` (centres unmarked) [Cmpd 64, 1-(3-(1-(7H-pyrrolo[2,3-d]pyrimidin-4-yl)piperidin-3-yl)phenyl)-3-(2-(methylsulfonyl)phenyl)urea]: the half-inhibitory concentration (IC50) lay within 1 to 10 µM.
On the same count and under the same terms, the figure for `O=C(Nc1ccccc1)Nc1cccc(C2CCCN(c3ncnc4[nH]ccc34)C2)n1` (centres unmarked) [compound 118, 1-(6-(1-(7H-pyrrolo[2,3-d]pyrimidin-4-yl)piperidin-3-yl)pyridin-2-yl)-3-phenylurea] is 1 to 10 µM.
The compound `O=C(Nc1cccc(C2CCCN(c3ncnc4[nH]ccc34)C2)c1)Nc1ccccc1N1CC[C@@H](F)C1` (some centres unmarked) [compound 162] registered a concentration for half-maximal inhibition (IC50) of 0.1 to 0.999 µM.
Take `Nc1cc(N2CCCC(c3cccc(NC(=O)Nc4ccccc4)c3)C2)ncn1` (centres unmarked) [Cmpd 94, 1-(3-(1-(6-aminopyrimidin-4-yl)piperidin-3-yl)phenyl)-3-phenylurea]: the IC50 is 1 to 10 µM.
Compound `Cc1cc(NC(=O)Nc2cccc(C3CCCN(c4ncnc5[nH]ccc45)C3)c2)no1` (centres unmarked) [Cmpd 57, 1-(3-(1-(7H-pyrrolo[2,3-d]pyrimidin-4-yl)piperidin-3-yl)phenyl)-3-(5-methylisoxazol-3-yl)urea] returned an IC50 of 1 to 10 µM.
Consider `CN(C)[C@H]1CCN(c2ccccc2NC(=O)Nc2cccc(C3CCCN(c4ncnc5[nH]ccc45)C3)c2)C1` (some centres unmarked) [compound 192], for which the concentration for half-maximal inhibition (IC50) lay within 1 to 10 µM.
`O=C(Nc1cc(C2CCCN(c3ncnc4[nH]ccc34)C2)ccc1OC(F)(F)F)c1ccccc1F` (centres unmarked) [Cmpd 89, N-(5-(1-(7H-pyrrolo[2,3-d]pyrimidin-4-yl)piperidin-3-yl)-2-(trifluoromethoxy)phenyl)-2-fluorobenzamide]: the half-maximal inhibitory concentration (IC50) lay in the range of 1 to 10 µM.
Same read-out and setting: the result for `CN(C)Cc1ccccc1NC(=O)Nc1cccc(C2CCCN(c3ncnc4[nH]ccc34)C2)c1` (centres unmarked) [Cmpd 63, 1-(3-(1-(7H-pyrrolo[2,3-d]pyrimidin-4-yl)piperidin-3-yl)phenyl)-3-(2-((dimethylamino)methyl)phenyl)urea] reads 1 to 10 µM; that for `N#Cc1c(N)ncnc1N1CCCC(c2cccc(NC(=O)Nc3ccccc3)c2)C1` (centres unmarked) [Cmpd 102, 1-(3-(1-(6-Amino-5-cyanopyrimidin-4-yl)piperidin-3-yl)phenyl)-3-phenylurea], 0.1 to 0.999 µM; that for `O=C1C(Nc2ccccc2)CCN1[C@@H]1CCCN(c2ncnc3[nH]ccc23)C1` (stereo partly drawn) [compound 270, 1-((R)-1-(7H-pyrrolo[2,3-d]pyrimidin-4-yl)piperidin-3-yl)-3-(phenylamino)pyrrolidin-2-one], 0.1 to 0.999 µM.
In turn, `O=C1C(Nc2ccccc2)c2ccccc2N1[C@@H]1CCCN(c2ncnc3[nH]ccc23)C1` (some centres unmarked) [compound 274] showed a concentration for half-maximal inhibition (IC50) of 1 to 10 µM.

The same test, now with this note: read-out: IC50 (10 uM ATP); 10 uM ATP; in vitro Btk kinase assay, Example 41.
On to `CC(C)NC(=O)Nc1cccc(C2CCCN(c3ncnc4[nH]ccc34)C2)c1` (centres unmarked) [compound 241], for which the IC50 is above 10 µM.
In the case of `CCOC(=O)CCc1c(N)ncnc1N1CCCC(c2cccc(NC(=O)Nc3ccccc3)c2)C1` (centres unmarked) [compound 253], the IC50 is above 10 µM.
Still for that read-out and setting: the figure for `NC(=O)Cc1ccccc1NC(=O)Nc1cccc(C2CCCN(c3ncnc4[nH]ccc34)C2)c1` (centres unmarked) [compound 261] is above 10 µM.
Same read-out and setting: the result for `N#Cc1c(N)ncnc1N1CCCC(c2nc(NC(=O)Nc3c(F)cc(F)cc3N3CCCC3)cs2)C1` (centres unmarked) [compound 113, 1-(2-(1-(6-amino-5-cyanopyrimidin-4-yl)piperidin-3-yl)thiazol-4-yl)-3-(2,4-difluoro-6-(pyrrolidin-1-yl)phenyl)urea] reads below 0.1 µM; that for `CC(C)(C)N/C(=N/C#N)Nc1cccc(C2CCCN(c3ncnc4[nH]ccc34)C2)c1` (centres unmarked) [Cmpd 78, (Z)-1-(3-(1-(7H-pyrrolo[2,3-d]pyrimidin-4-yl)piperidin-3-yl)phenyl)-3-tert-butyl-2-cyanoguanidine], above 10 µM.
Turning to `CC(C)(C)c1ccc(NC(=O)Nc2cccc(C3CCCN(c4ncnc5[nH]ccc45)C3)c2)cc1` (centres unmarked) [compound 263], the IC50 was above 10 µM.
Take `O=C(Nc1ccccc1)N[C@H]1CCCN(C2CCCN(c3ncnc4[nH]ccc34)C2)C1` (some centres unmarked) [compound 237]: the IC50 was above 10 µM.
Turning to `CCOC(=O)/C=C/c1c(N)ncnc1N1CCCC(c2cccc(NC(=O)Nc3ccccc3)c2)C1` (centres unmarked) [compound 221], the IC50 is above 10 µM.
With `O=C(Nc1ccccc1)Nc1cnc(C2CCCN(c3ncnc4[nH]ccc34)C2)s1` (centres unmarked) [compound 117, 1-(2-(1-(7H-pyrrolo[2,3-d]pyrimidin-4-yl)piperidin-3-yl)thiazol-5-yl)-3-phenylurea], the IC50 is above 10 µM.
As to `CC1(C)[C@@H]2CCC(CNC(=O)Nc3cccc(C4CCCN(c5ncnc6[nH]ccc56)C4)c3)[C@H]1C2` (some centres unmarked) [compound 258], the 50% inhibitory concentration (IC50) was above 10 µM.
For the compound `Nc1ncnc(N2CC[C@@H](F)[C@@H](N3CCC[C@@H](Nc4cc(F)cc(Cl)c4)C3=O)C2)c1F` [compound 341, (3R,3′S,4′R)-1′-(6-amino-5-fluoropyrimidin-4-yl)-3-(3-chloro-5-fluorophenylamino)-4′-fluoro-1,3′-bipiperidin-2-one], the 50% inhibitory concentration (IC50) was below 0.1 µM.
As for `CC(C)(C#N)c1ccccc1NC(=O)Nc1cccc(C2CCCN(c3ncnc4[nH]ccc34)C2)c1` (centres unmarked) [compound 260], the IC50 was above 10 µM.
For `Nc1ncnc(N2CCC[C@@H](N3CCCC(Nc4cccc(C(=O)O)c4)C3=O)C2)c1F` (stereo partly drawn) [compound 299, 3-((3′R)-1′-(6-Amino-5-fluoropyrimidin-4-yl)-2-oxo-1,3′-bipiperidin-3-ylamino)benzoic acid], the IC50 is above 10 µM.
The same measure, in the same setting: the figure for `Nc1ncnc(N2CC(N3CCCC(Nc4cc(F)cc(Cl)c4)C3=O)CC(F)(F)C2)c1F` (centres unmarked) [compound 359] is below 0.1 µM; for `Cc1cc(NC(=O)Nc2cccc(C3CCCN(c4ncnc5[nH]ccc45)C3)c2)c(C(F)(F)F)o1` (centres unmarked) [compound 236] it is above 10 µM; for `Nc1ncnc(N2CCC[C@@H](N3CCCC(Nc4ccc(C(=O)O)cc4)C3=O)C2)c1F` (stereo partly drawn) [compound 298, 4-((3′R)-1′-(6-Amino-5-fluoropyrimidin-4-yl)-2-oxo-1,3′-bipiperidin-3-ylamino)benzoic acid] it is above 10 µM.
For `O=C1C(Nc2cc(Cl)cc(C(F)(F)F)c2)CCCN1[C@@H]1CCCN(c2ncnc3[nH]ccc23)C1` (stereo partly drawn) [compound 300, (3′R)-3-(3-Chloro-5-(trifluoromethyl)phenylamino)-1′-(7H-pyrrolo[2,3-d]pyrimidin-4-yl)-1,3′-bipiperidin-2-one], the IC50 is below 0.1 µM.
On to `O=C1C(Nc2ccccc2S(=O)(=O)N2CCCCC2)CCCN1[C@@H]1CCCN(c2ncnc3[nH]ccc23)C1` (stereo partly drawn) [compound 318, (3′R)-3-(2-(Piperidin-1-ylsulfonyl)phenylamino)-1′-(7H-pyrrolo[2,3-d]pyrimidin-4-yl)-1,3′-bipiperidin-2-one], for which the IC50 is below 0.1 µM.
Take `Cn1nccc1NC(=O)Nc1cccc(C2CCCN(c3ncnc4[nH]ccc34)C2)c1` (centres unmarked) [compound 249]: the IC50 was above 10 µM.
Same read-out and setting: the figure for `O=C(Nc1cccc(C2CCCN(c3ncnc4[nH]ccc34)C2)c1)c1ccccn1` (centres unmarked) [compound 13, N-(3-(1-(7H-pyrrolo[2,3-d]pyrimidin-4-yl)piperidin-3-yl)phenyl)picolinamide] is above 10 µM.
Turning to `Nc1ncnc(N2CCC[C@@H](N3CCCC(NCC4CCCCC4)C3=O)C2)c1F` (stereo partly drawn) [compound 293, (3′R)-1′-(6-Amino-5-fluoropyrimidin-4-yl)-3-(cyclohexylmethylamino)-1,3′-bipiperidin-2-one], the half-maximal inhibitory concentration (IC50) was above 10 µM.
On the same count and under the same terms, the result for `Nc1ncnc(N2CC[C@H](C(F)(F)F)[C@@H](N3CC[C@@H](Nc4cc(Cl)cc(Cl)c4)C3=O)C2)c1F` [compound 353] reads below 0.1 µM; that for `Nc1ncnc(N2CCC[C@@H](N3CCCC(Nc4cc(Cl)cc(Cl)c4)C3=O)C2)c1F` (stereo partly drawn) [compound 278, (3′R)-1′-(6-amino-5-fluoropyrimidin-4-yl)-3-(3,5-dichlorophenylamino)-1,3′-bipiperidin-2-one], below 0.1 µM.
As for `FC(F)(F)c1ccc(Nc2cccc(C3CCCN(c4ncnc5[nH]ccc45)C3)c2)nc1` (centres unmarked) [compound 142, N-(3-(1-(7H-pyrrolo[2,3-d]pyrimidin-4-yl)piperidin-3-yl)phenyl)-5-(trifluoromethyl)pyridin-2-amine], the half-maximal inhibitory concentration (IC50) was above 10 µM.
Turning to `Nc1ncnc(N2CCC[C@@H](N3CCCC(Nc4cc(F)cc(Cl)c4)C3=O)C2)c1F` (stereo partly drawn) [compound 277, (3′R)-1′-(6-amino-5-fluoropyrimidin-4-yl)-3-(3-chloro-5-fluorophenylamino)-1,3′-bipiperidin-2-one], the IC50 is below 0.1 µM.
